The values that follow come from ChEMBL document CHEMBL3232975, “Using ovality to predict nonmutagenic, orally efficacious pyridazine amides as cell specific spleen tyrosine kinase inhibitors” (J Med Chem, 2014).

The nature of data set [1]: Metabolic stability in human liver microsomes. Format: ADME. The settings on record: read-out: Stability. A general note: Liver microsomes are a subcellular fraction often used to study metabolism.
A short description of data set [2]: Metabolic stability in rat liver microsomes. Format: ADME. The settings on record: read-out: Stability.
A short description of data set [3]: Solubility of the compound by LYSA. Format: physicochemical.
For data set [4], the system named is Mus musculus. In words: Dose-normalized AUC in mouse at 30 mg/kg, po. Also noted: dose 30 mg/kg, route oral. The note with it: in vivo. The format is ADME, organism-based.
The nature of data set [5]: Volume of distribution at steady state in mouse at 0.5 mg/kg, iv. The format is ADME, organism-based. Details: dose 0.5 mg/kg, route intravenous. The note with it: in vivo, read-out: Vdss.
A short description of data set [6]: Apparent terminal half life in mouse at 0.5 mg/kg, iv. The format is ADME, organism-based. Details: dose 0.5 mg/kg, route intravenous. The settings on record: in vivo, read-out: betat1/2(app) (converted).
A short description of data set [7]: Cmax in mouse at 30 mg/kg, po. Format: ADME, organism-based. Details: dose 30 mg/kg, route oral. The settings on record: in vivo.
Data set [8] can be described thus: Oral bioavailability in mouse at 30 mg/kg. Format: ADME, organism-based. The note with it: in vivo.
Data set [9] is described as follows: Total plasma clearance in mouse at 0.5 mg/kg, iv. Also noted: dose 0.5 mg/kg, route intravenous. The format is ADME, organism-based.
Data set [10] deals with Mus musculus. In words: Dose-normalized AUC in mouse at 5 mg/kg, po. The settings on record: in vivo. Details: dose 5 mg/kg, route oral. Format: ADME, organism-based.
Data set [11] is described as follows: Cmax in mouse at 5 mg/kg, po. Format: ADME, organism-based. Details: dose 5 mg/kg, route oral. The note with it: in vivo.
A short description of data set [12]: Oral bioavailability in mouse at 5 mg/kg. The format is ADME, organism-based. The note with it: in vivo.
Data set [13] is described as follows: Total plasma clearance in mouse at 1 mg/kg, iv. Format: ADME, organism-based. Also noted: dose 1 mg/kg, route intravenous.
The nature of data set [14]: Apparent terminal half life in mouse at 1 mg/kg, iv. The format is ADME, organism-based. Also noted: dose 1 mg/kg, route intravenous. The settings on record: in vivo, read-out: betat1/2(app) (converted).
A short description of data set [15]: Volume of distribution at steady state in mouse at 1 mg/kg, iv. Format: ADME, organism-based. The settings on record: in vivo, read-out: Vdss. Also noted: dose 1 mg/kg, route intravenous.
Data set [16] has as its system Mus musculus. In words: Dose-normalized AUC in mouse at 10 to 20 mg/kg, po. Details: dose 10-20 mg/kg, route oral. The settings on record: in vivo. The format is ADME, organism-based.
Data set [17] in a line: Oral bioavailability in mouse at 10 to 20 mg/kg. Format: ADME, organism-based. The settings on record: in vivo.

≈ marks a conversion by molar mass, not a printed value.

For orientation: solubility means the dissolved amount per volume that the medium holds. Low values mean little dissolved substance, high ones much dissolved substance. Regarding `Cc1cccc(Nc2cc(N[C@@H]3CCCC[C@@H]3N)nnc2C(N)=O)n1`, the values for the CLhep predicted in data set [1] and in data set [2] were 2 mL/min/kg and 27 mL/min/kg, respectively. Also, the solubility in [3] amounted to 471 µg/mL (≈ 1380 µM).
One may read the Cmax as the maximum level reached in the sampled fluid or tissue. Broadly, the bioavailability is dose-corrected exposure relative to a reference, in per cent. A lower bioavailability goes with little systemic uptake. Broadly, the clearance is a measure of how efficiently the substance is removed, as volume per time. For `Cc1nc(Nc2cc(N[C@@H]3CCCC[C@@H]3N)nnc2C(N)=O)ccc1F`, the AUC/dose with Mus musculus [4] is given as 568 ng/mL.hr/(mg/kg). In data set [5], the Vd is 1.44 L/kg. The half-life in data set [6] was 3.26 h. In addition, the CLhep predicted in data set [1] was 3 mL/min/kg; in data set [2], 18 mL/min/kg. The amount in solution in data set [3] (solubility) came to 390 µg/mL (≈ 1090 µM). For the same compound, the peak level in data set [7] (Cmax) was 1560 ng/mL. The bioavailability in [8] was found to be 20%. Further, the clearance in data set [9] was determined as 5.57 mL/min/kg.
For the compound `Cc1ccc(Nc2cc(N[C@@H]3CCCC[C@@H]3N)nnc2C(N)=O)nc1C`, the CLhep predicted was 1 mL/min/kg in data set [1] and 23 mL/min/kg in data set [2]. Besides, the concentration in solution in data set [3] (solubility) came to 329 µg/mL (≈ 926 µM). For the same compound, the AUC/dose with Mus musculus [10] was 25.9 ng/mL.hr/(mg/kg).
With `Cc1nc(Nc2cc(N[C@@H]3CCCC[C@@H]3N)nnc2C(N)=O)ccc1Cl`, the peak concentration (Cmax) in data set [11] was found to be 386 ng/mL; in data set [7], 144 ng/mL. Besides, the results for the AUC/dose in the data set on Mus musculus [4] and in the data set on Mus musculus [10] were 9753 ng/mL.hr/(mg/kg) and 970 ng/mL.hr/(mg/kg), respectively. Besides, the Vd in data set [5] turned out to be 2.74 L/kg. In data set [6], the half-life was 3.92 h. For the same compound, the CLhep predicted in [1] is 7 mL/min/kg; in [2] it was 20 mL/min/kg. In addition, the bioavailability was determined as 51% in data set [12] and 40% in data set [8]. The compound also returned a solubility in data set [3] of 345 µg/mL (≈ 918 µM). The compound further came in with a clearance in [9] of 8.65 mL/min/kg.
With `NC(=O)c1nnc(N[C@@H]2CCCC[C@@H]2N)cc1Nc1ccc2c(n1)CCC2`, the CLhep predicted in data set [1] is 2 mL/min/kg; in data set [2], 27 mL/min/kg. In addition, the solubility in data set [3] was 404 µg/mL (≈ 1100 µM).
In the same order, the values of `COc1ccc(Nc2cc(N[C@@H]3CCCC[C@@H]3N)nnc2C(N)=O)nc1OC` are 2 mL/min/kg, 14 mL/min/kg and 522 µg/mL (≈ 1350 µM).
On to `COc1ccc(Nc2cc(N[C@@H]3CCOC[C@@H]3N)nnc2C(N)=O)nc1C(C)C`, for which the clearance in data set [13] amounted to 42.2 mL/min/kg. The half-life in data set [14] is 1.96 h. For the same compound, the Vd in data set [15] was 3.67 L/kg. For the same compound, in the data set on Mus musculus [16], the AUC/dose is recorded as 365 ng/mL.hr/(mg/kg). This compound returned a bioavailability in [17] of 92%.
For `COc1ccc(Nc2cc(NCCN)nnc2C(N)=O)nc1C(C)C`, in that order: 16.7 mL/min/kg, 1.74 h, 1.4 L/kg, 609 ng/mL.hr/(mg/kg) and 61%.
In the same order, the values of `CCCc1nc(Nc2cc(NCCN)nnc2C(N)=O)ccc1OC` are 8.52 mL/min/kg, 1.28 h, 0.63 L/kg, 1470 ng/mL.hr/(mg/kg) and 75%.
